Measured values from US11345712B2, “Protein-targeting compounds and pharmaceutical compositions thereof, and their therapeutic applications” (BioTheryX, Inc., priority 2019, dated 2022).

Tested on: MOLM-13 cells
Assay: MOLM-13 cell viability assay (CellTiter-Glo)
Assay type: cell-based
Conditions: Homo sapiens, MOLM-13, 72 h, 3 days, concentration of 1 μM, read-out: Antiproliferative Activity (inhibition, MOLM-13 cell viability)
Summary of the method: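 MOLM-13 AML cells in RPMI 1640 with 10% FBS, seeded at 2,500 cells/well and exposed to compound or DMSO for 3 days at 37° C, 5% CO2. Viability read as CellTiter-Glo luminescence after 10 min shaking.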

SMILES	cytotoxicity at 1 µM
CN(C)Cc1cccc(NC(=O)NCc2cc3c(s2)C(=O)N(C2CCC(=O)NC2=O)C3)c1 (stereo not drawn) [II-53, 1-(3-((dimethylamino)methyl)phenyl)-3-((5-(2,6-dioxopiperidin-3-yl)-6-oxo-5,6-dihydro-4H-thieno[2,3-c]pyrrol-2-yl)methyl)urea]	< 25%
Cc1ccc(NC(=O)NCc2cc3c(s2)C(=O)N(C2CCC(=O)NC2=O)C3)cc1C(C)C (stereo not drawn) [II-54, 1-((5-(2,6-dioxopiperidin-3-yl)-6-oxo-5,6-dihydro-4H-thieno[2,3-c]pyrrol-2-yl)methyl)-3-(3-isopropyl-4-methylphenyl)urea]	> 80%
CN(C)c1cc(NC(=O)NCc2cc3c(s2)C(=O)N(C2CCC(=O)NC2=O)C3)ccc1C(F)(F)F (stereo not drawn) [II-55, 1-(3-(dimethylamino)-4-(trifluoromethyl)phenyl)-3-((5-(2,6-dioxopiperidin-3-yl)-6-oxo-5,6-dihydro-4H-thieno[2,3-c]pyrrol-2-yl)methyl)urea]	> 80%
CC(C)N(C)c1cccc(NC(=O)NCc2cc3c(s2)C(=O)N(C2CCC(=O)NC2=O)C3)c1 (stereo not drawn) [II-56, 1-((5-(2,6-dioxopiperidin-3-yl)-6-oxo-5,6-dihydro-4H-thieno[2,3-c]pyrrol-2-yl)methyl)-3-(3-(isopropyl(methyl)amino)phenyl)urea]	> 80%
Cc1ccc(CC(=O)NCc2csc3c2CN(C2CCC(=O)NC2=O)C3=O)cc1Cl (stereo not drawn) [II-57, 2-(3-chloro-4-methylphenyl)-N-((5-(2,6-dioxopiperidin-3-yl)-6-oxo-5,6-dihydro-4H-thieno[2,3-c]pyrrol-3-yl)methyl)acetamide]	50 to 80%
COc1cc(NC(=O)NCc2cc3c(s2)C(=O)N(C2CCC(=O)NC2=O)C3)ccc1C (stereo not drawn) [II-58, 1-((5-(2,6-dioxopiperidin-3-yl)-6-oxo-5,6-dihydro-4H-thieno[2,3-c]pyrrol-2-yl)methyl)-3-(3-methoxy-4-methylphenyl)urea]	> 80%
Cc1cc(NC(=O)NCc2cc3c(s2)C(=O)N(C2CCC(=O)NC2=O)C3)ccc1N(C)C (stereo not drawn) [II-59, 1-(4-(dimethylamino)-3-methylphenyl)-3-((5-(2,6-dioxopiperidin-3-yl)-6-oxo-5,6-dihydro-4H-thieno[2,3-c]pyrrol-2-yl)methyl)urea]	< 25%
CC(C)c1cc(NC(=O)NCc2cc3c(s2)C(=O)N(C2CCC(=O)NC2=O)C3)cc(N(C)C)c1 (stereo not drawn) [II-60, 1-(3-(dimethylamino)-5-isopropylphenyl)-3-((5-(2,6-dioxopiperidin-3-yl)-6-oxo-5,6-dihydro-4H-thieno[2,3-c]pyrrol-2-yl)methyl)urea]	> 80%
CN(C)c1ccc(CC(=O)NCc2scc3c2CN(C2CCC(=O)NC2=O)C3=O)cc1 (stereo not drawn) [II-61, 2-(4-(dimethylamino)phenyl)-N-((5-(2,6-dioxopiperidin-3-yl)-4-oxo-5,6-dihydro-4H-thieno[3,4-c]pyrrol-1-yl)methyl)acetamide]	< 25%
CC(C)(C)c1ccc(CC(=O)NCc2scc3c2CN(C2CCC(=O)NC2=O)C3=O)cc1 (stereo not drawn) [II-62, 2-(4-(tert-butyl)phenyl)-N-((5-(2,6-dioxopiperidin-3-yl)-4-oxo-5,6-dihydro-4H-thieno[3,4-c]pyrrol-1-yl)methyl)acetamide]	25 to 50%
COc1ccc(CC(=O)NCc2scc3c2CN(C2CCC(=O)NC2=O)C3=O)cc1C(C)C (stereo not drawn) [II-63, N-((5-(2,6-dioxopiperidin-3-yl)-4-oxo-5,6-dihydro-4H-thieno[3,4-c]pyrrol-1-yl)methyl)-2-(3-isopropyl-4-methoxyphenyl)acetamide]	> 80%
Cc1ccc(NCCCCCNCc2scc3c2CN(C2CCC(=O)NC2=O)C3=O)cc1Cl (stereo not drawn) [II-64, 3-(1-(((5-((3-chloro-4-methylphenyl)amino)pentyl)amino)methyl)-4-oxo-4H-thieno[3,4-c]pyrrol-5(6H)-yl)piperidine-2,6-dione]	< 25%
